Laboratory results published in US11413267B2, “Methods and compositions for inhibition of ATR and FANCD2 activation” (priority 2012, dated 2022).

Tests used:
synchronized cells = assay: Double-thymidine cell cycle synchronization assay (flow cytometry); format: cell-based; details: for Percentage of G2/M cells compared with control group, in words: 9 hours of treatment after release
Source text: ATR are involved in DNA replication. […] In the results of double-thymidine cell cycle synchronization assay, according to the Table 4 which sorted out from FIGS. 21-23, the unsynchronized cells (FIG. 21(a)) become synchronization by using this method, and 97% of cells were stopped at G1/S boundary after two cycles of thymidine blocks (FIG. 21(b)). Those synchronized cells released from thymidine blockade and allowed progress into S phase in presence or absence of protoapigenone (I-1) and compound II-1.
To evaluate the effect of DNA damage checkpoint activation on cell cycle distribution, the cells were harvested at indicated time points and fixed with methanol for at least 2 h. The DNA was then stained with a solution containing propidium iodide (PI) and RNase A (Sigma-Aldrich). Fluorescently labeled cells were subsequently analyzed by the flow cytometer (LSR II; BD Biosciences) with a suitable selection of excitation and emission wavelengths. The percentages of different fluorescent cell populations were analyzed using WinMDI Ver. 2.9 (The Scripps Research Institute).

[1] = test system: ATR-dependent Chk1 phosphorylation; assay: Immunoblot of DNA damage-induced Chk1 phosphorylation; format: cell-based, human
Source text: We hypothesized that genes with functions associated with DNA damage checkpoints and/or DNA repair might be targeted by benzopyran-4-one derivatives. To test this hypothesis, we assessed the effects of benzopyran-4-one derivatives on DDR induced by H2O2. […] In response to DNA double-strand breaks (DSBs), FANCD2 is known to be monoubiquitinated on K561 (FANCD2-Ub) in an ATR-dependent manner to stimulate repair (Andreassen P R, et al. Genes Dev 2004).
To elucidate the specificity of the benzopyran-4-one derivatives inhibition on ATR-mediated signaling, we compared the change between cells treated with benzopyran-4-one derivatives or the ATM-specific inhibitor KU55933 before the induction of DDR.
MDA-MB-231 (breast adenocarcinoma; ATCC HTB-26, BCRC 60425) and A549 (lung adenocarcinoma; ATCC CCL-185, BCRC 60074) human cell lines were purchased from Bioresource Collection and Research Center (BCRC, Hsinchu, Taiwan), and were authenticated by American Type Culture Collection (ATCC, Manassas, Va.). U2OS (osteosarcoma), HeLa (cervical adenocarcinoma), and HEK 293T (embryonic kidney cells) human cell lines were provided by Dr. Sheau-Yann Shieh (Institute of Molecular Biology, Academia Sinica, Taipei, Taiwan). Cells were maintained in Dulbecco's modified Eagle's medium (DMEM, Sigma-Aldrich) supplemented with 10% fetal bovine serum (FBS) (Gibco). […] For UV irradiation treatment, the cells were irradiated for 10 J/m^2 by a cross-linker (UVP) 1 h prior to analysis.
Cell lysate preparations, gel electrophoresis, and immunoblotting were performed as previously described (23). The binding of primary antibodies were detected by horseradish peroxidase-coupled secondary antibodies (Jackson ImmunoResearch) followed by enhanced chemiluminescence (ECL) (Millipore). The images of non-saturated bands were captured using a luminescent image analyzer (LAS-4000 mini; Fujifilm). The antibodies used in this study are listed in supplementary materials.

[2] = test system: A549 cells, MDA-MB-231 cells; assay: Cancer cell growth at low doses (FIGS. 19, 20); format: cell-based, human; details: low doses (I-1 0.25-1 μM, II-1 0.1-0.4 μM)
DNA replication = assay: EdU incorporation assay of DNA replication; format: cell-based
Experimental: DNA replication was measured using a Click-it EdU assay kit, which is based on incorporation of the thymidine analogue 5-ethynyl-2'-deoxyuridine (EdU) into DNA during replication (Invitrogen). Then, 10 μM EdU was added to the cell culture medium 30 min before the cells were harvested and fixed in 4% paraformaldehyde. After cycloaddition, EdU was detected with Alexa Fluor 647 using click reaction catalyzed by Cu (II), and the DNA content was stained by CellCycle 405-blue. […] An FITC Annexin V apoptosis detection kit was used to characterize the phenotype of cell death based on PI and Annexin V double staining (BD Pharmingen, San Diego, Calif.). Fluorescence-labeled cells were subsequently analyzed by the BD LSR II flow cytometer with a suitable selection of excitation and emission wavelengths. The percentages of different fluorescent cells were analyzed using WinMDI Ver. 2.9.

[3] = test system: GFP-expressing retrovirus (Lenti-GFP); assay: Lenti-GFP infection of HEK293T cells; format: cell-based, lentivirus
Experimental: In addition to the test of the benzopyran-4-one derivative compounds on the DNA virus infection, they were tested on the retrovirus using a GFP-expressing retrovirus to visualize the […] infection. […]. Afterward, the lentiviral stock (Lenti-GFP) was titered and used to infect the cells for analysis.
To observe the anti-virus effect of the benzopyran-4-one derivative compounds, Ad-GFP and Lenti-GFP at a low MOI of 0.5 were then applied to infect the HEK293A cells and HEK293T cells, respectively. In the prevention group, cells were treated by compounds of Compound I-1 at 0.2, 1, and 2 μM or Compound II-1 at 0.1, 0.5, 1 μM for 30 minutes before Ad-GFP and Lenti-GFP infection. In the treatment group, cells were treated by compounds of Compound I-1 at 0.2, 1, and 2 μM or Compound II-1 at 0.1, 0.5, and 1 μM for 2 hours after Ad-GFP and Lenti-GFP infection. After a total of 6 hours of compounds and virus treatments, cells were washed with Hank's buffered salt solution and a flash culture media was replaced.
24 hours after virus infection, the effect of the benzopyran-4-one derivative compounds on the antivirus infection was recorded by observing the GFP positive cells under an inverted fluorescence microscope. The mean fluorescence intensity by flow cytometry in each plate of cells was analyzed for quantification.

Ad-GFP virus replication = Ad-GFP virus replication (supernatant re-infection of HEK293A cells); format: cell-based, adenovirus
Experimental: Ideally, the Ad-GFP virus is replicated within HEK293A cells. To test the effect of benzopyran-4-one derivative compounds on Ad-GFP virus replication, the same virus infection and compound treatment are performed as shown in FIG. 26. At the end of a 24-hour experiment, we collected the Ad-GFP virus from each well of Ad-GFP infected HEK293A using two freeze-thaw cycles and then collected the supernatants. An equal amount of supernatants from each well were then infected with the HEK293A cells, which were newly-prepared 1 day before infection in a 96-well plate at a density of 5×10^4 per well. Finally, the GFP cell images were obtained using the inverted fluorescence microscope and quantified by analyzing the MFI using flow cytometry for each well of cells.

tumor xenografts = details: previous studies; cited from earlier work
[4] = 6 hrs after release from synchronization
[5] = 9 hrs after release from synchronization
[6] = pre-treatment, 0.2-2 μM Compound I-1 or 0.1-1 μM Compound II-1
[7] = post-treatment 2 hours after infection, re-infection
[8] = pre-treatment, 24 hours after re-infection

| Compound | Cell cycle G1 (synchronized cells; [4]) [%] | Cell cycle G2M (synchronized cells; [4]) [%] | Cell cycle S (synchronized cells; [4]) [%] | Percentage of G2/M cells compared with control group, in words (synchronized cells) | Cell cycle G1 (synchronized cells; [5]) [%] | Cell cycle G2M (synchronized cells; [5]) [%] | Cell cycle S (synchronized cells; [5]) [%] | Cancer growth [2] | MFI of GFP protein [3, 6] | MFI of GFP protein (Ad-GFP virus replication; [7]) | Number of GFP cells (Ad-GFP virus replication; [7]) | MFI of GFP protein (Ad-GFP virus replication; [8]) | Number of GFP cells (Ad-GFP virus replication; [8]) | Size of tumor xenografts (tumor xenografts) | Toxic effects on the recipient (tumor xenografts) | other results |
| --- | --- | --- | --- | --- | --- | --- | --- | --- | --- | --- | --- | --- | --- | --- | --- | --- |
| O=C1C=CC(O)(c2cc(=O)c3c(O)cc(O)cc3o2)C=C1 [Compound I-1, Protoapigenone] | 25.45 | 0.41 | 69.13 | significantly reduce | 21.41 | 16.46 | 60.89 | significantly slowed cancer growth in a dose-dependent manner | significantly decreased | significant decreased | significant decreased | significantly decreased | significantly decreased | reduce the size of tumor xenografts | without exerting toxic effects on the recipient | Reversal of inhibition of Chk1 phosphorylation by okadaic acid or MG132 pretreatment ([1]; 50 μM OA or 20 μM MG132, 10 J/m^2 UV 1 h): could not reverse; Chk1 phosphorylation ([1]; A594 cells, 0.1 mM H2O2 for 2 h): inhibit; Reversal of Chk1 phosphorylation inhibition by overexpression of ATR mediators ([1]; HEK293T cells overexpressing ATRIP, TopBP1, claspin or ATR, 10 J/m^2 UV, 1 h): overexpression of ATRIP or TopBP1 did not reverse the inhibitory effect of Protoapigenone (I-1) on Chk1 phosphorylation, whereas overexpression of claspin or ATR did; Percentage of EdU incorporation compared with control group (DNA replication; 4 μM): efficiently reduce; MFI of GFP protein ([3]; post-treatment, 2 μM): showed an inhibition effect |
| O=C1C=CC(O)(c2cc(=O)c3c(ccc4ccccc43)o2)C=C1 [Compound II-1, 3-(1-hydroxy-4-oxo-cyclohexa-2,5-dienyl)-1H-benzo[f]chromen-1-one] | 21.72 | 4.59 | 72.01 | significantly reduce | 15.50 | 20.45 | 63.06 | significantly slowed cancer growth in a dose-dependent manner | significantly decreased | significant decreased | significant decreased | significantly decreased | significantly decreased | reduce the size of tumor xenografts | without exerting toxic effects on the recipient | Potency in inhibiting Chk1 phosphorylation, comparison ([1]; FIGS. 6(a), 6(b)): more potent than Protoapigenone (I-1); Percentage of EdU incorporation compared with control group (DNA replication; 0.4 μM): efficiently reduce; MFI of GFP protein ([3]; post-treatment 2 hours after infection, 0.1-1 μM): significantly decreased |
